The subject of one assay is NKG2A+/NKG2C− NK cells. As to the kind of experiment: NK cell stimulation assay with peptide-loaded HLA-E expressing target cells, NKG2A+ cells. It is filed as cell-based, human. Particulars: NK cell degranulation and IFN-g, TNF and CCL3 production; compared to LIL, LFL and PQS controls. Here is the method:
(§1) FIG. 4: NK cell stimulation assays. Assessment of effects of peptides on NK cell activity through incubation of NK cells, peptides, and a) K562/HLA-E or b) RMA-S/HLA-E target cells. Peptides were derived from the human or CMV proteomes or are included as positive (LFL, LIL) or negative controls (PQS). Replicates for individual peptides are from different donors, with solid black lines indicating mean values.
(§2) Cell-based activation assays were performed with primary NK cells (FIG. 4). Therein, NK cells were co-incubated with K562 peptide-loaded HLA-E expressing cells, as described previously^14. The K562 human […] cell line is a common tool for the analysis of NK cell cytotoxicity and activation, as said cells facilitate the analysis of both NKG2C-mediated activation and NKG2A-mediated inhibition. The PQS peptide served as a negative control.
(§3) Peptides that bound and stabilized HLA-E in the cell-based stability experiment (FIG. 3) were selected and assessed regarding their effect on NKG2A+/NKG2C− or NKG2A−/NKG2C+ NK cell activity. The effect was quantified by the ability to induce NK cell degranulation and IFN-g, TNF and CCL3 production, compared to […] (“LIL”; SEQ ID NO: 4) and […] (“LFL”; SEQ ID NO: 2) peptides (class I MHC-derived) as positive control, and […] (“PQS”; (SEQ ID NO: 53) as negative control peptide (FIG. 4). NKG2A/NKG2C NK cells served as an internal control. NKG2A/NKG2C NK cells have been shown previously to not be affected by peptide-HLA-E complexes.

Another assay addresses HLA-E (Homo sapiens, UniProt P13747). Briefly: HLA-E surface stabilization assay with RMA-S/HLA-E cells. It is filed as cell-based. Particulars: RMA-S/HLA-E cells incubated with 30 μM peptide, anti-HLA-E antibody. The protocol:
Assessment of peptide-HLA-E binding via HLA-E surface stabilization assay with RMA-S/HLA-E cells incubated with 30 μM peptide. HLA-E expression is detected with an anti-HLA-E antibody.
To do so, various sequence variants were assessed for their ability to stabilize surface-expressed HLA-E on RMA-S/HLA-E cells, a TAP-deficient mouse tumor cell line engineered to express HLA-E and human β2M (FIG. 3).

The subject of the next assay is NKG2A−/NKG2C+ NK cells. As to the kind of experiment: NK cell stimulation assay with peptide-loaded HLA-E expressing target cells, NKG2C+ cells. It is filed as cell-based, human. Particulars: NK cell degranulation and IFN-g, TNF and CCL3 production; compared to LIL, LFL and PQS controls. Here is the method: as §1, §2, §3

This is an account of results in patent US20260286356A1, “NUCLEIC ACID VACCINE FOR ACTIVATING NKG2C+ NATURAL KILLER CELLS” (priority 2023, published 2026).

Sequence of HLA-E (P13747 22-358): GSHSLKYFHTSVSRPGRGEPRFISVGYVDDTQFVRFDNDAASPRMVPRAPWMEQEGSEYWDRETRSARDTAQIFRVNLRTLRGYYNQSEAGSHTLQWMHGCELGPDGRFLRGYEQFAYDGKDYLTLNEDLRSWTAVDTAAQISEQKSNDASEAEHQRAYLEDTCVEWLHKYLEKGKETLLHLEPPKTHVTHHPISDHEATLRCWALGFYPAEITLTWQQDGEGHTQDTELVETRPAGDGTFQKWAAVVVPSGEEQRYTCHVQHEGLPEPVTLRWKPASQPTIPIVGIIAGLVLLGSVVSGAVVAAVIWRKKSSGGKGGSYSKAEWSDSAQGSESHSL
Sequence of HLA-E (P61769 21-119, further chain): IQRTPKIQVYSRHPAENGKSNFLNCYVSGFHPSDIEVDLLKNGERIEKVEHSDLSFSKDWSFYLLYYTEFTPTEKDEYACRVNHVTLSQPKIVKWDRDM

Take FLPNRSLLF: the “inhibitory effect on NKG2A+ cells” value with NKG2A+/NKG2C− NK cells is listed as “moderate inhibitory effects”. For the same sequence, the “stabilization of HLA-E surface expression (peptide-HLA-E binding)” value (from here on “stabilization”) with HLA-E is reported as “strong stabilization of HLA-E”. Moreover, in the assay on NKG2A−/NKG2C+ NK cells, the “activating effect on NKG2C+ cells” value was “strong activating effects”.
Turning to ILTDRSLWL, in the assay on NKG2A+/NKG2C− NK cells, the “inhibitory effect on NKG2A+ cells” value is given as “moderate inhibitory effects”. Moreover, the “stabilization” value with HLA-E is “strong stabilization of HLA-E”. The “activating effect on NKG2C+ cells” value in the assay with NKG2A−/NKG2C+ NK cells is “strong activating effects”.
As to NMPARTVLF, the “inhibitory effect on NKG2A+ cells” value in the assay on NKG2A+/NKG2C− NK cells is on record as “strong inhibitory effect”. Also, the “stabilization” value with HLA-E is “strong stabilization of HLA-E”. The “activating effect on NKG2C+ cells” value with NKG2A−/NKG2C+ NK cells was “strong activating effect”.
With QMPSRSLLF, the “inhibitory effect on NKG2A+ cells” value with NKG2A+/NKG2C− NK cells is “moderate inhibitory effects”. In addition, in the assay with HLA-E, the “stabilization” value is listed as “strong stabilization of HLA-E”. The “activating effect on NKG2C+ cells” value in the assay on NKG2A−/NKG2C+ NK cells was “strong activating effects”.
Consider RMPPRSVLL, for which the “inhibitory effect on NKG2A+ cells” value in the assay with NKG2A+/NKG2C− NK cells is reported as “strong inhibitory effect”. Further, in the assay with NKG2A−/NKG2C+ NK cells, the “activating effect on NKG2C+ cells” value is “strong activating effect”.
Consider TAPARTMFL, for which the “stabilization” value in the assay with HLA-E is recorded as “strong stabilization of HLA-E”.
As to TLPERTLYL, the “inhibitory effect on NKG2A+ cells” value with NKG2A+/NKG2C− NK cells is listed as “strong inhibitory effect”. Also, the “stabilization” value in the assay with HLA-E was “strong stabilization of HLA-E”. In addition, the “activating effect on NKG2C+ cells” value with NKG2A−/NKG2C+ NK cells was “strong activating effect”.
Regarding TLPKRGLFL, the “inhibitory effect on NKG2A+ cells” value with NKG2A+/NKG2C− NK cells was “moderate inhibitory effects”. The “stabilization” value with HLA-E is listed as “strong stabilization of HLA-E”. The “activating effect on NKG2C+ cells” value in the assay on NKG2A−/NKG2C+ NK cells was “strong activating effects”.
Turning to VLPHRTQFL, in the assay with NKG2A+/NKG2C− NK cells, the “inhibitory effect on NKG2A+ cells” value was “strong inhibitory effect”. Besides, in the assay with HLA-E, the “stabilization” value is reported as “strong HLA-E binding”. Further, the “activating effect on NKG2C+ cells” value in the assay with NKG2A−/NKG2C+ NK cells is given as “strong activating effect”.
On to VMADKSIFY [OR5D14, reference compound], for which, in the assay with HLA-E, the “stabilization” value was “no stabilizing effects”.
Still for that read-out and setting: next, VMGDRSVLY [EMC1, reference compound]: “no stabilizing effects”.
As to VMPGRTLCF, in the assay with NKG2A+/NKG2C− NK cells, the “inhibitory effect on NKG2A+ cells” value was “strong inhibitory effect”. Besides, the “stabilization” value with HLA-E is given as “strong stabilization of HLA-E”. Also, the “activating effect on NKG2C+ cells” value in the assay on NKG2A−/NKG2C+ NK cells was “strong activating effect”.
The matching figures for VMPPRTLLL: “strong inhibitory effect”, “strong stabilization of HLA-E” and “strong activating effect”.
As for “WNRLFPPLR [UBAC2275-279, reference compound]”, the “stabilization” value with HLA-E is recorded as “no stabilizing effects”.
